In US20180251425A1, “2,3,5 TRISUBSTITUTED PYRROLE DERIVATIVES AS TOPOISOMERASE INHIBITORS AND THERAPEUTIC USES THEREOF” (UNIVERSITY OF MYSORE, priority 2015, published 2018):

Tests used:
Type in all cases: cell-based
[1] = test system: MCF7; assay: Cytotoxicity in MCF7 cells; settings: Homo sapiens, read-out: Cytotoxicity IC 50 in μM (Cell lines) MCF7
Protocol: (§1) Human cancer cell lines, K562, MCF7, HeLa and HEK 293T were purchased from National Centre for Cell Science, Pune, India. Cells were grown in RPMI 1640/MEM/DMEM supplemented with 10% heat-inactivated fetal bovine serum (FBS), 100 U/mL of Penicillin, and 100 μg of streptomycin/mL and incubated at 37° C. in a humidified atmosphere containing 5% CO2.
(§2) The human T cell leukemia cell line Molt4, Human acute lymphoblastic leukemia (ALL) cell line Nalm6, Human acute myelocytic leukemia (AML) cell line Reh, chronic myelogenous leukemia (CML) cell line K562, Human breast adenocarcinoma cell lines like MCF7 and human kidney cell line HEK 293T (Human embryonic kidney cell line) were selected for the purpose of preliminary anticancer screening of newly synthesized compounds (ASR1 to ASR15). To check the cytotoxicity, trypan blue dye exclusion assays, MTT assay were employed as described earlier Further, Cell cycle analysis, Mitochondrial membrane potential, Annexin-V FITC staining assay were also performed in order to understand the mode of cell death after treatment with ASR6. Further, ASR6 was also tested for its ability to inhibit topoisomerase I and II activity in vitro.
(§3) Cytotoxic effect of the newly synthesized compounds against leukemic cells was assessed using 3-(4, 5-dimethyl-2-yl02, 5-diphenyl tetrazolium bromide (MTT) assay. After exposure of compound at different concentration (0.01, 0.1, 0.5, 1, 10, 50 and 100 μM) cells were harvested and transferred into 96 well plate, MTT (5 mg/ml) was added and incubate at 37° C. for 4 h and formazan crystals were dissolved by adding solubilizing agent (10% SDS and 50% dimethyl formamide) for 1 h, finally plate was read at 570 nm (Bio-Rad, USA). Results were represented as inhibition of percentage of cell proliferation in bar diagram (n=3) (FIGS. 1 A, C, E and G).
(§4) To determine the growth inhibitory activity of the drug, 0.5×10^5 cell/ml were plated in 24 well (Biofil, USA.) in 1 ml of complete medium and treated with various concentration of the compound to test, cells were stained with 0.4% trypan blue and counted on a hemocytometer after treatment with compounds at 48 and 72 h time point. Results were represented as number of viable cells/ml in bar diagram (FIGS. 1 B, D, F, and H) (n=3).

[2] = test system: HeLa; assay: Cytotoxicity in HeLa cells; settings: Homo sapiens, read-out: Cytotoxicity IC 50 in μM (Cell lines) HeLa
Protocol: as §1
as §3, with “G). […]” for “G).”

[3] = test system: K562; assay: Cytotoxicity (MTT / trypan blue) in K562 cells; settings: Homo sapiens, read-out: Cytotoxicity IC 50 in μM (Cell lines) K562
Protocol: as §1, §2, §3, §4

[4] = test system: Reh; assay: Cytotoxicity (MTT / trypan blue) in Reh cells; settings: Homo sapiens, read-out: Cytotoxicity IC 50 in μM (Cell lines) Reh
Protocol: as §1
(§5) Nalm6, Molt4 and Reh cells were provided by Dr. Sathees C. Raghavan, Department of Biochemistry, IISc, Bangalore. The cells were grown under the similar culture conditions as mentioned above.
as §2, §3, §4

[5] = test system: Nalm6; assay: Cytotoxicity (MTT / trypan blue) in Nalm6 cells; settings: Homo sapiens, NALM-6, read-out: Cytotoxicity IC 50 in μM (Cell lines) Nalm6
Protocol: as §1, §5, §2, §3, §4

[6] = test system: Molt4; assay: Cytotoxicity (MTT / trypan blue) in Molt4 cells; settings: Homo sapiens, MOLT-4, read-out: Cytotoxicity IC 50 in μM (Cell lines) Molt4
Protocol: as §1, §5, §2, §3, §4

Structure (SMILES): CCOC(=O)c1[nH]c(-c2ccccc2)cc1-c1ccccc1 [ASR1, Ethyl 3,5-diphenyl-1H-pyrrole-2-carboxylate]
- IC50 [1]: > 100 µM
- IC50 [2]: > 100 µM
- IC50 [3]: > 100 µM
- IC50 [4]: > 100 µM
- IC50 [5]: > 50 µM
- IC50 [6]: > 50 µM

Structure (SMILES): CCOC(=O)c1[nH]c(-c2ccc(OC)cc2)cc1-c1cccc(C)c1 [ASR2, Ethyl 5-(4-methoxyphenyl)-3-m-tolyl-1H-pyrrole-2-carboxylate]
- IC50 [1]: > 100 µM
- IC50 [2]: > 100 µM
- IC50 [3]: > 100 µM
- IC50 [4]: > 100 µM
- IC50 [5]: > 50 µM
- IC50 [6]: > 50 µM

Structure (SMILES): CCOC(=O)c1[nH]c(-c2ccc(OC)cc2)cc1-c1ccco1 [ASR3, Ethyl 3-(furan-2-yl)-5-(4-methoxyphenyl)-1H-pyrrole-2-carboxylate]
- IC50 [1]: > 100 µM
- IC50 [2]: > 100 µM
- IC50 [3]: > 100 µM
- IC50 [4]: > 100 µM
- IC50 [5]: > 50 µM
- IC50 [6]: > 50 µM

Structure (SMILES): CCOC(=O)c1[nH]c(-c2ccc(C)cc2)cc1-c1cccc([N+](=O)[O-])c1 [ASR4, Ethyl 3-(3-nitrophenyl)-5-p-tolyl-1H-pyrrole-2-carboxylate]
- IC50 [1]: > 100 µM
- IC50 [2]: > 100 µM
- IC50 [3]: > 100 µM
- IC50 [4]: > 100 µM
- IC50 [5]: > 50 µM
- IC50 [6]: > 50 µM

Structure (SMILES): CCOC(=O)c1[nH]c(-c2ccc(C)cc2)cc1-c1ccc(C#N)cc1 [ASR5, Ethyl 3-(4-cyanophenyl)-5-p-tolyl-1H-pyrrole-2-carboxylate]
- IC50 [1]: > 100 µM
- IC50 [2]: > 100 µM
- IC50 [3]: > 100 µM
- IC50 [4]: > 100 µM
- IC50 [5]: > 50 µM
- IC50 [6]: > 50 µM

Structure (SMILES): CCOC(=O)c1[nH]c(-c2ccc(Cl)cc2)cc1-c1ccc2ccccc2c1 [ASR7, Ethyl 5-(4-chlorophenyl)-3-(naphthalen-2-yl)-1H-pyrrole-2-carboxylate]
- IC50 [1]: > 100 µM
- IC50 [2]: > 100 µM
- IC50 [3]: > 100 µM
- IC50 [4]: > 100 µM
- IC50 [5]: > 50 µM
- IC50 [6]: 30.8 µM

Structure (SMILES): CCOC(=O)c1[nH]c(-c2cccs2)cc1-c1cccs1 [ASR8, Ethyl 3,5-di(thiophen-2-yl)-1H-pyrrole-2-carboxylate]
- IC50 [1]: > 100 µM
- IC50 [2]: > 100 µM
- IC50 [3]: > 100 µM
- IC50 [4]: > 100 µM
- IC50 [5]: > 50 µM
- IC50 [6]: 35.3 µM

Structure (SMILES): CCOC(=O)c1[nH]c(-c2cccs2)cc1-c1ccc(Br)cc1 [ASR9, Ethyl 3-(4-bromophenyl)-5-(thiophen-2-yl)-1H-pyrrole-2-carboxylate]
- IC50 [1]: > 100 µM
- IC50 [2]: > 100 µM
- IC50 [3]: > 100 µM
- IC50 [4]: > 100 µM
- IC50 [5]: > 50 µM
- IC50 [6]: 50 µM

Structure (SMILES): CCOC(=O)c1[nH]c(-c2ccc(OC)c(OC)c2)cc1-c1ccc(C(F)(F)F)cc1 [ASR10, Ethyl 5-(3,4-dimethoxyphenyl)-3-(4-(trifluoromethyl)phenyl)-1H-pyrrole-2-carboxylate]
- IC50 [1]: > 100 µM
- IC50 [2]: > 100 µM
- IC50 [3]: > 100 µM
- IC50 [4]: > 100 µM
- IC50 [5]: 20 µM
- IC50 [6]: 7.96 µM

Structure (SMILES): COC(=O)c1[nH]c(-c2cccc(OC)c2)cc1-c1ccc(C(F)(F)F)cc1 [ASR11, Methyl 5-(3-methoxyphenyl)-3-(4-(trifluoromethyl)phenyl)-1H-pyrrole-2-carboxylate]
- IC50 [1]: > 100 µM
- IC50 [2]: > 100 µM
- IC50 [3]: > 100 µM
- IC50 [4]: > 100 µM
- IC50 [5]: 9.53 µM
- IC50 [6]: 17 µM

Structure (SMILES): CCOC(=O)c1[nH]c(-c2ccc(OC)c(OC)c2)cc1-c1ccncc1 [ASR12, Ethyl 5-(3,4-dimethoxyphenyl)-3-(pyridin-4-yl)-1H-pyrrole-2-carboxylate]
- IC50 [1]: > 100 µM
- IC50 [2]: > 100 µM
- IC50 [3]: > 100 µM
- IC50 [4]: > 100 µM
- IC50 [5]: 14.3 µM
- IC50 [6]: 26.1 µM

Structure (SMILES): COC(=O)c1[nH]c(-c2ccc(C)cc2)cc1-c1cccc([N+](=O)[O-])c1 [ASR13, Methyl 3-(3-nitrophenyl)-5-p-tolyl-1H-pyrrole-2-carboxylate]
- IC50 [1]: > 100 µM
- IC50 [2]: > 100 µM
- IC50 [3]: > 100 µM
- IC50 [4]: > 100 µM
- IC50 [5]: 11 µM
- IC50 [6]: 8.84 µM

Structure (SMILES): CCOC(=O)c1[nH]c(-c2cc(OC)c(OC)c(OC)c2)cc1-c1cccs1 [ASR14, Ethyl 3-(thiophen-2-yl)-5-(3,4,5-trimethoxyphenyl)-1H-pyrrole-2-carboxylate]
- IC50 [1]: > 100 µM
- IC50 [2]: > 100 µM
- IC50 [3]: > 100 µM
- IC50 [4]: > 100 µM
- IC50 [5]: 10.5 µM
- IC50 [6]: 15.2 µM

Structure (SMILES): CCOC(=O)c1[nH]c(-c2cccc(OC)c2)cc1-c1ccncc1 [ASR15, Ethyl 5-(3-methoxyphenyl)-3-(pyridin-4-yl)-1H-pyrrole-2-carboxylate]
- IC50 [1]: > 100 µM
- IC50 [2]: > 100 µM
- IC50 [3]: > 100 µM
- IC50 [4]: > 100 µM
- IC50 [5]: 5.4 µM
- IC50 [6]: 12.9 µM
